Experimental findings from US8846699B2, “Quinazoline derivatives as a multiplex inhibitor and method for the preparation thereof” (Hanmi Pharm. Co., Ltd., priority 2005, dated 2014) are described below.

One test has as its target EGFR1 (HER-1) (Homo sapiens (Human), UniProt P00533). The experiment in a line: EGFR1 (HER-1) enzyme assay, fluorescence polarization. Format: biochemical. Particulars: 100 μM ATP, poly(Glu, Tyr) substrate. A general note: In fluorescence polarisation assays a small probe gives low polarisation when free and higher when bound to something large.
Test [1] deals with skin cancer cell line, A431. The experiment in a line: Inhibitory effect on growth of cancer cell line A431, SRB. Format: cell-based. Particulars: overexpressed EGFR1 (HER-1). An excerpt:
(§1) A skin cancer cell line, A431 (ATCC: CRL-1555), a breast cancer cell line, SK-Br3 (ATCC: HTB-30), and a colon and rectal cancer cell line, SW-620 (ATCC: CCL-227) were used to test the degrees of cancer cell growth inhibition using a culture medium, DEME (Dulbecco's Modified Eagle's Medium, JBI) including 4.5 g/l of glucose and 1.5 g/l of sodium bicarbonate and supplemented with 10% FBS (fetal bovine serum, JBI).
(§2) The cancer cell lines stored in a liquid nitrogen tank were each quickly thawed at 37° C., and centrifuged to remove the medium. The resulting cell pellet was mixed with a culture medium, incubated in a culture flask at 37° C. under 5% CO2 for 2 to 3 days, and the medium was removed. The remaining cells were washed with DPBS (Dulbecco's Phosphate Buffered Saline, JBI) and separated from the flask by using Trypsin-EDTA solution, and the separated cells were diluted with a culture medium to a concentration of 1.0×10^6 cells/ml in case of A431 and SW-620, and 2.0×10^6 cells/ml in case of SK-Br3. 100 μl of the diluted cell solution was added to each well of a 96-well plate, which was incubated at 37° C. under 5% CO2 for 1 day.
(§3) In case that the test compound was not soluble in DMSO, a small amount of 1% HCl was added thereto and treated in a 40° C. water bath for 30 mins until complete dissolution was attained. The test compound solution was diluted with a culture medium to a final concentration of 10 μM, and then diluted 10 times serially to 10^−4. The final concentration of DMSO was less than 1%, and the control compounds of Test Example 1 were used at a concentration of 0.0001 to 10 μM.
(§4) The medium was removed from each well of the 96-well microplate, 100 μl of a diluted test compound solution was added to each well holding cultured cells, and the microplate was incubated at 37° C. under 5% CO2 for 72 hours. After removing the medium from the plate, 50 μl of 10% trichloroacetic acid was added to each well, and the plate was kept at 37° C. for 1 hour to fix the cells to the bottom of the plate. 10% trichloroacetic acid was removed from each well, the plate was dried, 100 μl of an SRB (Sulforhodamine-B, Sigma) dye solution was added thereto, and reacted for 10 mins. The SRB dye solution was prepared by dissolving SRB in 1% acetic acid to a concentration of 0.4%. After removing the dye solution, the plate was washed with water, and dried. When the dye solution was not removed by water, 1% acetic acid was used.
(§5) 150 μl of 10 mM trisma base (Sigma) was added to each well, and the absorbance at 570 nm was determined with a microplate reader (Molecular device).

Test [2] concerns breast cancer cell line, SK-Br3. The experiment in a line: Inhibitory effect on growth of cancer cell line SK-Br3, SRB. The conditions noted are these: overexpressed EGFR2 (HER-2). Format: cell-based.
From the text: as §1, §2, §3, §4, §5

Test [3] has as its system colon and rectal cancer cell line, SW-620. The experiment in a line: Inhibitory effect on growth of cancer cell line SW-620, SRB. Format: cell-based. Particulars: not having overexpressed EGFR and EGFR2.
From the text: as §1, §2, §3, §4, §5

Test [4] concerns Human Umbilical Vein Endothelial Cell (HUVEC). The experiment in a line: Inhibitory effect on growth of human umbilical vein endothelial cell (HUVEC), MTS. It is filed as cell-based. The conditions noted are these: 10 ng/ml VEGF, absorbance 490 nm. Here is the method: HUVECs (Young Science, Inc) were suspended in a culture medium, EBM-2 (Endothelial Basic Media, Cambrex) supplemented with 2% bovine serum (Cambrex) and auxiliary additives for HUVEC culture (e.g., EGF, VEGF, FGF, etc., Cambrex), inoculated into a culture flask coated with 1% gelatin, and incubated in an incubator at 37° C. under 5% CO2 and 100% humidity.
100 μl of 5% bovine serum medium containing 10 ng/ml of vascular endothelial growth factor (VEGF) and auxiliary additives, while excluding other growth factors was added to each well of a 96-well plate. […] DMSO (Dimethylsulfoxide) was used to dissolve the test compounds, and the final concentration of DMSO was less than 1%.
100 μl of the diluted cell solution was added to each well of the 96-well plate, which was incubated in an incubator for 96 hours.
Then, 20 μl of MTS ([…], Promega) solution was added to each well of the plate, and the plate was incubated in an incubator for 4 hours to induce discoloration. After 4 hours, the pellets were dissolved by way of a thorough shaking, and the absorbance at 490 nm was determined.

EGFR1 (HER-1), sequence (P00533 25-1210): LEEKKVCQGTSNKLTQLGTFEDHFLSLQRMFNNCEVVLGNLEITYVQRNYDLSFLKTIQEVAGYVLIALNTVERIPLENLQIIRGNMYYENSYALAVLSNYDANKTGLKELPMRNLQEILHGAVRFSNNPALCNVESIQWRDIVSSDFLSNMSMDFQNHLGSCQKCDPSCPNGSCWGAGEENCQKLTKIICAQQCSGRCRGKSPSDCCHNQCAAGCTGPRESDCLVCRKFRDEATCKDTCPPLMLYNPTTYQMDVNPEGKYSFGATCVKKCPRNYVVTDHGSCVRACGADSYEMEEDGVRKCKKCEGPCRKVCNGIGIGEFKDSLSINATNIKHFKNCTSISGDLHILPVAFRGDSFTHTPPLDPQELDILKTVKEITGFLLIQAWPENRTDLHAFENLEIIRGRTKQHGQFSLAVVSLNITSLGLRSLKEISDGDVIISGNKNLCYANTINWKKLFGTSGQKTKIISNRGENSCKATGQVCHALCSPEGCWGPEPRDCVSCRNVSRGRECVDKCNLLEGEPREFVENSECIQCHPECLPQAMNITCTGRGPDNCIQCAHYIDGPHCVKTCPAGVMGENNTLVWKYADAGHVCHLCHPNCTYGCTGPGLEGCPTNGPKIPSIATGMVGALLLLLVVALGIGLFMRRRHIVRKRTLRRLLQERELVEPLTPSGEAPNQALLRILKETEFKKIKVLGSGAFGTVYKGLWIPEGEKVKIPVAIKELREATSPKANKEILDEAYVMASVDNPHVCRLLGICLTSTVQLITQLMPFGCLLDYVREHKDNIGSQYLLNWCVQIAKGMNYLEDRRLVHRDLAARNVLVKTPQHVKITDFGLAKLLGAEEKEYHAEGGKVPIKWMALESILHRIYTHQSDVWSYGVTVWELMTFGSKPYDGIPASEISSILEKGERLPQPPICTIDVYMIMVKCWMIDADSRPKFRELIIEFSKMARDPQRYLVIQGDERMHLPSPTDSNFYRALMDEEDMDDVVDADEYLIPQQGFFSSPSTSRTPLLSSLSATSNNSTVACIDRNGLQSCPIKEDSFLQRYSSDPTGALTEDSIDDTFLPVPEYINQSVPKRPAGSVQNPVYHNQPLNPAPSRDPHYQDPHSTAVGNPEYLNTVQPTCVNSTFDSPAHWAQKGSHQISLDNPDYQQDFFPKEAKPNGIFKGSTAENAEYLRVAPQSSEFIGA

For the compound `C=CC(=O)Nc1cc2c(Nc3ccc(Br)cc3F)ncnc2cc1OCC(C)(C)NC(=O)CN(C)C` [Example 154, N-{4-(4-bromo-2-fluoro-phenylamino)-7-[2-(2-dimethylamino-acetylamino)-2-methyl-propoxy]-quinazolin-6-yl}-acrylamide], the IC50 (in general, the concentration at which inhibition is half-maximal) was determined as 222 nM on EGFR1 (HER-1); 248 nM in test [1] (Homo sapiens, A-431, 72 h); 240 nM in test [2] (Homo sapiens, SK-BR-3, 72 h); 9130 nM in test [3] (Homo sapiens, 72 h).

For the compound `C=CC(=O)Nc1cc2c(Nc3ccc(Br)cc3F)ncnc2cc1OCC(NC(=O)CN(C)C)C(C)C` (stereo not drawn) [Example 156, N-{4-(4-bromo-2-fluoro-phenylamino)-7-[2-(2-dimethylamino-acetylamino)-3-methyl-buthoxy]-quinazolin-6-yl}-acrylamide], the IC50 in test [4] (96 hours) stood at 10000 nM; on EGFR1 (HER-1) it was 149 nM; in test [1] (72 hours), 196 nM; in test [2] (72 hours), 462 nM; in test [3] (72 hours), 3270 nM.

Regarding `COc1cc2c(Nc3ccc(Br)cc3F)ncnc2cc1OCC1CCN(C)CC1` [Control 2, ZD6474, reference compound], the IC50 worked out at 70 nM in test [4] (Homo sapiens, 96 h); 28 nM in test [1] (Homo sapiens, A-431, 72 h); 2600 nM in test [2] (Homo sapiens, SK-BR-3, 72 h); 4500 nM in test [3] (Homo sapiens, 72 h).

Regarding `C=CC(=O)Nc1cc2c(Nc3ccc(Br)c(Cl)c3)ncnc2cc1OCCNC(=O)CN(C)C` [Example 152], the IC50 is 10000 nM in test [4] (96 hours); 75 nM against EGFR1 (HER-1); 99 nM in test [1] (72 hours); 647 nM in test [2] (72 hours); 10000 nM in test [3] (72 hours).

For `C=CC(=O)Nc1cc2c(Nc3cc(OC)c(Cl)cc3OC)ncnc2cc1OCCNC(=O)CN(C)C` [Example 166, N-{4-(4-chloro-2,5-dimethoxy-phenylamino)-7-[2-(2-dimethylamino-acetylamino)-ethoxy]-quinazolin-6-yl}-acrylamide], the IC50 on EGFR1 (HER-1) stood at 14 nM; in test [1] (Homo sapiens, A-431, 72 h) it was 30 nM; in test [2] (Homo sapiens, SK-BR-3, 72 h), 27 nM; in test [3] (Homo sapiens, 72 h), 5650 nM.

Take `C=C(C)C(=O)Nc1cc2c(Nc3ccc(Br)cc3F)ncnc2cc1OCCNC(C)=O` [Example 76, N-[7-(2-acetylamino-ethoxy)-4-(4-bromo-2-fluoro-phenylamino)-quinazolin-6-yl]-2-methyl-acrylamide]: the IC50 on EGFR1 (HER-1) is 1020 nM; in test [1] (Homo sapiens, A-431, 72 h) it was 2880 nM; in test [2] (Homo sapiens, SK-BR-3, 72 h), 6340 nM.

As to `C=CC(=O)Nc1cc2c(Nc3ccc(Br)cc3F)ncnc2cc1OC1CCN(C(C)=O)C1` (stereo not drawn) [Example 88, N-[7-(1-acetyl-pyrrolidin-3-yloxy)-4-(4-bromo-2-fluoro-phenylamino)-quinazolin-6-yl]-acrylamide], the IC50 was 10000 nM in test [4] (Homo sapiens, 96 h); 94 nM against EGFR1 (HER-1); 99 nM in test [1] (Homo sapiens, A-431, 72 h); 297 nM in test [2] (Homo sapiens, SK-BR-3, 72 h); 723 nM in test [3] (Homo sapiens, 72 h).

On to `C=CC(=O)Nc1cc2c(Nc3ccc(Br)cc3C(F)(F)F)ncnc2cc1OCCNC(C)=O` [Example 114, N-[7-(2-acetylamino-ethoxy)-4-(4-bromo-2-trifluoromethyl-phenylamino)-quinazolin-6-yl]-acrylamide], for which the IC50 turned out to be 456 nM on EGFR1 (HER-1); 468 nM in test [1] (Homo sapiens, A-431, 72 h); 897 nM in test [2] (Homo sapiens, SK-BR-3, 72 h).

As to `C=CC(=O)Nc1cc2c(Nc3ccc(Br)cc3F)ncnc2cc1OCCNC(=O)C1CCCN1C` (stereo not drawn) [Example 98, 1-methyl-pyrrolidine-2-carboxylic acid {2-[6-acryloylamino-4-(4-bromo-2-fluoro-phenylamino)-quinazolin-7-yloxy]-ethyl}-amide], the IC50 stood at 69 nM on EGFR1 (HER-1); 78 nM in test [1] (72 hours); 179 nM in test [2] (Homo sapiens, SK-BR-3, 72 h); 9570 nM in test [3] (Homo sapiens, 72 h).

Take `C=CC(=O)Nc1cc2c(Nc3ccc(Br)c(Cl)c3F)ncnc2cc1OC[C@H](C)NC(=O)CN(C)C` [Example 158, (S)—N-4-(4-bromo-3-chloro-2-fluoro-phenylamino)-7-[2-(2-dimethylamino-acetylamino)-propoxy]-quinazolin-6-yl-acrylamide]: the IC50 in test [4] (96 hours) worked out at 10000 nM; against EGFR1 (HER-1), 23.1 nM; in test [1] (72 hours), 259 nM; in test [2] (72 hours), 381 nM; in test [3] (72 hours) it was 5150 nM.

As to `C=CC(=O)Nc1cc2c(Nc3ccc(Br)cc3F)ncnc2cc1OCCNC(=O)C1CCCN1C` (stereo not drawn) [Example 100, 1-methyl-pyrrolidine-2-carboxylic acid {2-[6-acryloylamino-4-(4-bromo-2-fluoro-phenylamino)-quinazolin-7-yloxy]-ethyl}-amide], the IC50 on EGFR1 (HER-1) was 24 nM; in test [1] (72 hours), 25 nM; in test [2] (72 hours) it was 101 nM; in test [3] (72 hours), 10000 nM.

In the case of `C=CC(=O)Nc1cc2c(Nc3ccc(Br)cc3F)ncnc2cc1OC1CCCN(C(C)=O)C1` (stereo not drawn) [Example 89, N-[7-(1-acetyl-piperidin-3-yloxy)-4-(4-bromo-2-fluoro-phenylamino)-quinazolin-6-yl]-acrylamide], the 50% inhibitory concentration (IC50) in test [4] (Homo sapiens, 96 h) was found to be 10000 nM; on EGFR1 (HER-1), 128 nM; in test [1] (Homo sapiens, A-431, 72 h), 368 nM; in test [2] (Homo sapiens, SK-BR-3, 72 h), 965 nM; in test [3] (Homo sapiens, 72 h), 10000 nM.

`C=CC(=O)Nc1cc2c(Nc3cc(OC)c(Cl)cc3Cl)ncnc2cc1OCCNC(C)=O` [Example 132, N-[7-(2-acetylamino-ethoxy)-4-(2,4-dichloro-5-methoxy-phenylamino)-quinazolin-6-yl]-acrylamide]: the IC50 at EGFR1 (HER-1) came to 42 nM; in test [1] (Homo sapiens, A-431, 72 h) it was 47 nM; in test [2] (Homo sapiens, SK-BR-3, 72 h), 36 nM; in test [3] (Homo sapiens, 72 h), 2700 nM.

With `Clc1ccc(Nc2nnc(Cc3ccncc3)c3ccccc23)cc1` [Control 1, PTK787, reference compound], the half-maximal inhibitory concentration (IC50) was 40 nM in test [4] (Homo sapiens, 96 h); 10000 nM in test [1] (Homo sapiens, A-431, 72 h); 10000 nM in test [2] (Homo sapiens, SK-BR-3, 72 h); 10000 nM in test [3] (Homo sapiens, 72 h).

Turning to `C=CC(=O)Nc1cc2c(Nc3ccc(F)c(Cl)c3)ncnc2cc1OCCNC(C)=O` [Example 111, N-[7-(2-acetylamino-ethoxy)-4-(3-chloro-4-fluoro-phenylamino)-quinazolin-6-yl]-acrylamide], the concentration for half-maximal inhibition (IC50) against EGFR1 (HER-1) came out at 12 nM; in test [1] (Homo sapiens, A-431, 72 h) it was 9 nM; in test [2] (Homo sapiens, SK-BR-3, 72 h), 26 nM; in test [3] (Homo sapiens, 72 h), 8530 nM.

Take `C=CC(=O)N(C)c1cc2c(Nc3ccc(Br)cc3F)ncnc2cc1OCCNC(C)=O` [Example 78, N-[7-(2-acetylamino-ethoxy)-4-(4-bromo-2-fluoro-phenylamino)-quinazolin-6-yl]-N-methyl-acrylamide]: the half-maximal inhibitory concentration (IC50) against EGFR1 (HER-1) was determined as 389 nM; in test [1] (Homo sapiens, A-431, 72 h) it was 396 nM; in test [2] (Homo sapiens, SK-BR-3, 72 h) it was 1210 nM.
